≈ marks a conversion by molar mass, not a printed value.
Legend:
Test in all cases: in vitro antibacterial evaluation, MIC by broth dilution
Format in all cases: cell-based
[1] = system: Staphylococcus sp.
Summary of the method: (§1)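 Broth dilution per NCCLS M7-A2 in Mueller-Hinton II medium, inoculum 5×10^5 CFU/mL, antibiotic range 64-0.06 μg/mL. MIC taken as lowest concentration inhibiting growth; Gram-positive panel includes recent clinical isolates resistant to methicillin, penicillin and/or vancomycin.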

[2] = system: Streptococcus sp.; conditions: broth dilution, 18 hours at 35° C.
Summary of the method: as §1

[3] = system: Enterococcus sp.; conditions: broth dilution, 18 hours at 35° C.
Summary of the method: as §1

[4] = system: Escherichia coli; conditions: 18 hours at 35° C.
[5] = strain ATCC 29213; broth dilution, 18 hours at 35° C.
[6] = strain GC 1131; broth dilution, 18 hours at 35° C.
[7] = strain GC 4541; broth dilution, 18 hours at 35° C.
[8] = strain GC 4542; broth dilution, 18 hours at 35° C.
[9] = strain GC 4544; broth dilution, 18 hours at 35° C.
[10] = strain GC 4545; broth dilution, 18 hours at 35° C.
[11] = broth dilution, 18 hours at 35° C.

## CC(c1ccccc1)C1NC(=O)CNC(=O)C(CO)NC(=O)C(C(O)C2CNC(=N)N2C2OC(CO)C(O)C(O)C2O)NC(=O)C(C(O)C2CNC(=N)N2)NC(=O)C(Cc2ccc(OC3OC(CO)C(OC4OC5COC(C)(c6ccc(F)cc6)OC5C(O)C4O)C(O)C3O)cc2)NC1=O (stereo not shown) [Example 216]
[1]; [5]
  MIC Staphylococcus aureus (ATCC 29213): 2 µg/mL (≈ 1.41 µM)
[1]; [6]
  MIC Staphylococcus aureus (GC 1131): 2 µg/mL (≈ 1.41 µM)
[1]; strain GC 3051; broth dilution, 18 hours at 35° C.
  MIC Staphylococcus aureus (GC 3051): 2 µg/mL (≈ 1.41 µM)
[1]; strain GC 3053; broth dilution, 18 hours at 35° C.
  MIC Staphylococcus aureus (GC 3053): 2 µg/mL (≈ 1.41 µM)
[1]; [7]
  MIC Staphylococcus aureus (GC 4541): 1 µg/mL (≈ 0.707 µM)
[1]; [8]
  MIC Staphylococcus aureus (GC 4542): 1 µg/mL (≈ 0.707 µM)
[1]; strain GC 4543; broth dilution, 18 hours at 35° C.
  MIC Staphylococcus aureus-SMITH (GC 4543): 2 µg/mL (≈ 1.41 µM)
[1]; [9]
  MIC Staphylococcus aureus (GC 4544): 2 µg/mL (≈ 1.41 µM)
[1]; [10]
  MIC Staphylococcus aureus (GC 4545): 1 µg/mL (≈ 0.707 µM)
[1]; strain GC 4546; broth dilution, 18 hours at 35° C.
  MIC Staphylococcus haemolyticus (GC 4546): 1 µg/mL (≈ 0.707 µM)
[1]; strain GC 4547; broth dilution, 18 hours at 35° C.
  MIC Coagulase Negative Staphylococcus (GC 4547): 2 µg/mL (≈ 1.41 µM)
[1]; strain GC 4548; broth dilution, 18 hours at 35° C.
  MIC Coagulase Negative Staphylococcus (GC 4548): 1 µg/mL (≈ 0.707 µM)
[1]; strain GC 4549; broth dilution, 18 hours at 35° C.
  MIC Coagulase Negative Staphylococcus (GC 4549): 1 µg/mL (≈ 0.707 µM)
[1]; strain GC 4551; broth dilution, 18 hours at 35° C.
  MIC Coagulase Negative Staphylococcus (GC 4551): 2 µg/mL (≈ 1.41 µM)
[1]; strain GC 6257; broth dilution, 18 hours at 35° C.
  MIC Coagulase Negative Staphylococcus (GC 6257): 1 µg/mL (≈ 0.707 µM)
[2]
  MIC Streptococcus agalactiae (GC 4564): 0.5 µg/mL (≈ 0.353 µM)
  MIC Streptococcus pneumoniae (ATCC 6301): 0.25 µg/mL (≈ 0.177 µM)
  MIC Streptococcus pneumoniae (GC 1894): <0.06 µg/mL
  MIC Streptococcus pneumoniae (GC 4565): 0.25 µg/mL (≈ 0.177 µM)
  MIC Streptococcus pyogenes (GC 4563): 0.5 µg/mL (≈ 0.353 µM)
[2]; inoculum 5×10^5 CFU/mL, strain ATCC 6301
  MIC Streptococcus pneumoniae (ATCC 6301): 0.25 µg/mL (≈ 0.177 µM)
[2]; inoculum 5×10^5 CFU/mL, strain GC 1894
  MIC Streptococcus pneumoniae (GC 1894): <0.06 µg/mL
[2]; inoculum 5×10^5 CFU/mL, strain GC 4563
  MIC Streptococcus pyogenes (GC 4563): 0.5 µg/mL (≈ 0.353 µM)
[2]; inoculum 5×10^5 CFU/mL, strain GC 4564
  MIC Streptococcus agalactiae (GC 4564): 0.5 µg/mL (≈ 0.353 µM)
[2]; inoculum 5×10^5 CFU/mL, strain GC 4565
  MIC Streptococcus pneumoniae (GC 4565): 0.25 µg/mL (≈ 0.177 µM)
[3]
  MIC Enterococcus avium (GC 4558): 4 µg/mL (≈ 2.83 µM)
  MIC Enterococcus faecalis (ATCC 29212): 4 µg/mL (≈ 2.83 µM)
  MIC Enterococcus faecalis (GC 2242): 4 µg/mL (≈ 2.83 µM)
  MIC Enterococcus faecalis (GC 2691): 4 µg/mL (≈ 2.83 µM)
  MIC Enterococcus faecalis (GC 3059): 4 µg/mL (≈ 2.83 µM)
  MIC Enterococcus faecalis (GC 4552): 4 µg/mL (≈ 2.83 µM)
  MIC Enterococcus faecalis (GC 4553): 4 µg/mL (≈ 2.83 µM)
  MIC Enterococcus faecalis (GC 4554): 4 µg/mL (≈ 2.83 µM)
  MIC Enterococcus faecalis (GC 6189): 4 µg/mL (≈ 2.83 µM)
  MIC Enterococcus faecium (GC 2243): 4 µg/mL (≈ 2.83 µM)
  MIC Enterococcus faecium (GC 4556): 4 µg/mL (≈ 2.83 µM)
  MIC Enterococcus faecium (GC 4557): 4 µg/mL (≈ 2.83 µM)
[3]; inoculum 5×10^5 CFU/mL, strain ATCC 29212
  MIC Enterococcus faecalis (ATCC 29212): 4 µg/mL (≈ 2.83 µM)
[3]; inoculum 5×10^5 CFU/mL, strain GC 2242
  MIC Enterococcus faecalis (GC 2242): 4 µg/mL (≈ 2.83 µM)
[3]; inoculum 5×10^5 CFU/mL, strain GC 2243
  MIC Enterococcus faecium (GC 2243): 4 µg/mL (≈ 2.83 µM)
[3]; inoculum 5×10^5 CFU/mL, strain GC 2691
  MIC Enterococcus faecalis (GC 2691): 4 µg/mL (≈ 2.83 µM)
[3]; inoculum 5×10^5 CFU/mL, strain GC 3059
  MIC Enterococcus faecalis (GC 3059): 4 µg/mL (≈ 2.83 µM)
[3]; inoculum 5×10^5 CFU/mL, strain GC 4552
  MIC Enterococcus faecalis (GC 4552): 4 µg/mL (≈ 2.83 µM)
[3]; inoculum 5×10^5 CFU/mL, strain GC 4553
  MIC Enterococcus faecalis (GC 4553): 4 µg/mL (≈ 2.83 µM)
[3]; inoculum 5×10^5 CFU/mL, strain GC 4554
  MIC Enterococcus faecalis (GC 4554): 4 µg/mL (≈ 2.83 µM)
[3]; inoculum 5×10^5 CFU/mL, strain GC 4556
  MIC Enterococcus faecium (GC 4556): 4 µg/mL (≈ 2.83 µM)
[3]; inoculum 5×10^5 CFU/mL, strain GC 4557
  MIC Enterococcus faecium (GC 4557): 4 µg/mL (≈ 2.83 µM)
[3]; inoculum 5×10^5 CFU/mL, strain GC 4558
  MIC Enterococcus avium (GC 4558): 4 µg/mL (≈ 2.83 µM)
[3]; inoculum 5×10^5 CFU/mL, strain GC 6189
  MIC Enterococcus faecalis (GC 6189): 4 µg/mL (≈ 2.83 µM)
[4]
  MIC Escherichia coli (ATCC 25922): 32 µg/mL (≈ 22.6 µM)
  MIC Escherichia coli (GC 4559): 16 µg/mL (≈ 11.3 µM)
  MIC Escherichia coli (GC 4560): 2 µg/mL (≈ 1.41 µM)

## CCCC(CCC)C(=O)OCC1OC(Oc2ccc(CC3NC(=O)C(C(C)c4ccccc4)NC(=O)CNC(=O)C(CO)NC(=O)C(C(O)C4CNC(=N)N4C4OC(CO)C(O)C(O)C4O)NC(=O)C(C(O)C4CNC(=N)N4)NC3=O)cc2)C(O)C(O)C1OC1OC(CO)C(O)C(O)C1O (stereo not drawn) [Example 99b, Cyclo[glycyl-β-methylphenylalanyl-O-[4-O-hexopyranosyl-6-O-(2-propylpentanoyl)hexopyranosyl]tyrosyl-3-(2-iminoimidazolidin-4-yl)seryl-3-(3-hexopyranosyl-2-iminoimidazolidin-4-yl)serylseryl]]
[1]; [11]
  MIC Coagulase Negative Staphylococcus (GC 4547): 4 µg/mL (≈ 2.81 µM)
  MIC Coagulase Negative Staphylococcus (GC 4548): 4 µg/mL (≈ 2.81 µM)
  MIC Coagulase Negative Staphylococcus (GC 4549): 2 µg/mL (≈ 1.41 µM)
  MIC Coagulase Negative Staphylococcus (GC 4551): 8 µg/mL (≈ 5.63 µM)
  MIC Coagulase Negative Staphylococcus (ID-3941): 2 µg/mL (≈ 1.41 µM)
  MIC Staphylococcus aureus-SMITH (GC 4543): 4 µg/mL (≈ 2.81 µM)
  MIC Staphylococcus haemolyticus (GC 4546): 4 µg/mL (≈ 2.81 µM)
[1]; broth dilution, 18 hours at 35° C.; strain GC 4546
  MIC Staphylococcus haemolyticus (GC 4546): 4 µg/mL (≈ 2.81 µM)
[1]; broth dilution, 18 hours at 35° C.; strain GC 4547
  MIC Coagulase Negative Staphylococcus (GC 4547): 4 µg/mL (≈ 2.81 µM)
[1]; broth dilution, 18 hours at 35° C.; strain GC 4548
  MIC Coagulase Negative Staphylococcus (GC 4548): 4 µg/mL (≈ 2.81 µM)
[1]; broth dilution, 18 hours at 35° C.; strain GC 4549
  MIC Coagulase Negative Staphylococcus (GC 4549): 2 µg/mL (≈ 1.41 µM)
[1]; broth dilution, 18 hours at 35° C.; strain GC 4551
  MIC Coagulase Negative Staphylococcus (GC 4551): 8 µg/mL (≈ 5.63 µM)
[1]; broth dilution, 18 hours at 35° C.; strain ID-3941
  MIC Coagulase Negative Staphylococcus (ID-3941): 2 µg/mL (≈ 1.41 µM)
[1]; broth dilution, 18 hours at 35° C.; strain SMITH GC 4543
  MIC Staphylococcus aureus-SMITH (GC 4543): 4 µg/mL (≈ 2.81 µM)
[1]; [5]
  MIC Staphylococcus aureus (ATCC 29213): 4 µg/mL (≈ 2.81 µM)
[1]; [6]
  MIC Staphylococcus aureus (GC 1131): 4 µg/mL (≈ 2.81 µM)
[1]; [7]
  MIC Staphylococcus aureus (GC 4541): 4 µg/mL (≈ 2.81 µM)
[1]; [8]
  MIC Staphylococcus aureus (GC 4542): 4 µg/mL (≈ 2.81 µM)
[1]; [9]
  MIC Staphylococcus aureus (GC 4544): 4 µg/mL (≈ 2.81 µM)
[1]; [10]
  MIC Staphylococcus aureus (GC 4545): 4 µg/mL (≈ 2.81 µM)
[2]; Streptococcus agalactiae (GC 4564)
  MIC Streptococcus agalactiae (GC 4564): 2 µg/mL (≈ 1.41 µM)
[2]; Streptococcus pneumoniae (GC 4565)
  MIC Streptococcus pneumoniae (GC 4565): <0.5 µg/mL
[2]; Streptococcus pyogenes (ID-3187)
  MIC Streptococcus pyogenes (ID-3187): 1 µg/mL (≈ 0.703 µM)
[2]
  MIC Streptococcus agalactiae (GC 4564): 2 µg/mL (≈ 1.41 µM)
  MIC Streptococcus pneumoniae (GC 4565): <0.5 µg/mL
  MIC Streptococcus pyogenes (ID-3187): 1 µg/mL (≈ 0.703 µM)
[3]; Enterococcus avium (GC 4558)
  MIC Enterococcus avium (GC 4558): 16 µg/mL (≈ 11.3 µM)
[3]; Enterococcus faecalis (ATCC 29212)
  MIC Enterococcus faecalis (ATCC 29212): 16 µg/mL (≈ 11.3 µM)
[3]; Enterococcus faecalis (GC 2242)
  MIC Enterococcus faecalis (GC 2242): 16 µg/mL (≈ 11.3 µM)
[3]; Enterococcus faecalis (GC 4552)
  MIC Enterococcus faecalis (GC 4552): 32 µg/mL (≈ 22.5 µM)
[3]; Enterococcus faecalis (GC 4553)
  MIC Enterococcus faecalis (GC 4553): 16 µg/mL (≈ 11.3 µM)
[3]; Enterococcus faecalis (GC 4554)
  MIC Enterococcus faecalis (GC 4554): 32 µg/mL (≈ 22.5 µM)
[3]; Enterococcus faecium (GC 2243)
  MIC Enterococcus faecium (GC 2243): 16 µg/mL (≈ 11.3 µM)
[3]; Enterococcus faecium (GC 4556)
  MIC Enterococcus faecium (GC 4556): 16 µg/mL (≈ 11.3 µM)
[3]; Enterococcus faecium (GC 4557)
  MIC Enterococcus faecium (GC 4557): 4 µg/mL (≈ 2.81 µM)
[3]
  MIC Enterococcus avium (GC 4558): 16 µg/mL (≈ 11.3 µM)
  MIC Enterococcus faecalis (ATCC 29212): 16 µg/mL (≈ 11.3 µM)
  MIC Enterococcus faecalis (GC 2242): 16 µg/mL (≈ 11.3 µM)
  MIC Enterococcus faecalis (GC 4552): 32 µg/mL (≈ 22.5 µM)
  MIC Enterococcus faecalis (GC 4553): 16 µg/mL (≈ 11.3 µM)
  MIC Enterococcus faecalis (GC 4554): 32 µg/mL (≈ 22.5 µM)
  MIC Enterococcus faecium (GC 2243): 16 µg/mL (≈ 11.3 µM)
  MIC Enterococcus faecium (GC 4556): 16 µg/mL (≈ 11.3 µM)
  MIC Enterococcus faecium (GC 4557): 4 µg/mL (≈ 2.81 µM)
[4]
  MIC Escherichia coli (ATCC 25922): >64 µg/mL

From patent US6914045B2, “Glycopeptide antibiotics” (Wyeth Holdings Corporation, priority 2001, dated 2005)
